“And” between values parts separate entries of the source, which are not always exact repeats. Identical values can stand only once.
Test: Biodistribution of representative compounds (Example 13), % ID/g in tissues of tumor-bearing mice
Format: in vivo, mouse
[1] = 30 min, 20 μCi per mouse (SA 6500 mCi/μmol)
[2] = 60 min + Blocker cold FAPI-04 (10 nmole, 6500-fold)
[3] = 60 min, 20 μCi per mouse (SA 6500 mCi/μmol)

In the case of N#C[C@@H]1CCCN1C(=O)CNC(=O)c1ccnc2ccc(OCCCNC(=O)[C@@H](CC(=O)O)NC(=O)[C@@H](CC(=O)O)NC(=O)c3ccc([18F])nc3)cc12 [[^18F]JHU1221785], the “% ID/g Bladder (individual mouse)” value [1] is reported as 0.93 % ID/g and 4.69 % ID/g, the “% ID/g Blood (individual mouse)” value [1] is reported as 5.98 % ID/g and 3.90 % ID/g and the “% ID/g Brain (individual mouse)” value [1] is reported as 0.14 % ID/g and 0.15 % ID/g. For the same compound, the “% ID/g Fat (individual mouse)” value [1] was 0.21 % ID/g and 0.19 % ID/g, the “% ID/g Femur (individual mouse)” value [1] was 2.78 % ID/g and 2.44 % ID/g and the “% ID/g Heart (individual mouse)” value [1] was 2.51 % ID/g and 2.01 % ID/g. The “% ID/g Kidney (individual mouse)” value [1] was 1.60 % ID/g and 3.33 % ID/g, the “% ID/g Large intestine (individual mouse)” value (from here on “% ID/g Large intestine”) [1] was 0.58 % ID/g and 0.86 % ID/g and the “% ID/g Liver (individual mouse)” value [1] was 6.56 % ID/g and 8.08 % ID/g. For the same compound, the “% ID/g Lung (individual mouse)” value [1] was 2.77 % ID/g and 2.53 % ID/g, the “% ID/g Mean Bladder” value [1] was 2.81 % ID/g and the “% ID/g Mean Blood” value [1] was 4.94 % ID/g. For the same compound, the “% ID/g Mean Brain” value [1] was 0.14 % ID/g, the “% ID/g Mean Fat” value [1] was 0.20 % ID/g and the “% ID/g Mean Femur” value [1] was 2.61 % ID/g. For the same compound, the “% ID/g Mean Heart” value [1] was 2.26 % ID/g, the “% ID/g Mean Kidney” value [1] was 2.47 % ID/g and the “% ID/g Mean Large intestine” value [1] was 0.72 % ID/g. The “% ID/g Mean Liver” value [1] was 7.32 % ID/g, the “% ID/g Mean Lung” value [1] was 2.65 % ID/g and the “% ID/g Mean Muscle” value [1] was 0.96 % ID/g. For the same compound, the “% ID/g Mean Pancreas” value [1] was 2.31 % ID/g, the “% ID/g Mean Salivary gland” value [1] was 2.93 % ID/g and the “% ID/g Mean Small intestine” value [1] was 2.49 % ID/g. For the same compound, the “% ID/g Mean Spleen” value [1] was 1.00 % ID/g, the “% ID/g Mean Stomach” value [1] was 0.82 % ID/g and the “% ID/g Mean Tumor” value [1] was 1.24 % ID/g. The “% ID/g Muscle (individual mouse)” value [1] was 0.81 % ID/g and 1.12 % ID/g, the “% ID/g Pancreas (individual mouse)” value [1] was 1.92 % ID/g and 2.71 % ID/g and the “% ID/g Salivery gland (individual mouse)” value [1] was 2.81 % ID/g and 3.05 % ID/g. The “% ID/g Small intestine (individual mouse)” value (“% ID/g Small intestine” for short) [1] was 2.60 % ID/g and 2.38 % ID/g, the “% ID/g Spleen (individual mouse)” value [1] was 1.03 % ID/g and 0.97 % ID/g and the “% ID/g Stomach (individual mouse)” value [1] was 0.72 % ID/g and 0.92 % ID/g. For the same compound, the “% ID/g Tumor (individual mouse)” value [1] was 1.14 % ID/g, the “% ID/g Bladder (individual mouse)” value [2] was 0.23 % ID/g and 0.67 % ID/g and the “% ID/g Blood (individual mouse)” value [2] was 0.11 % ID/g and 9.26 % ID/g. For the same compound, the “% ID/g Brain (individual mouse)” value [2] was 0.02 % ID/g and 0.04 % ID/g, the “% ID/g Fat (individual mouse)” value [2] was 0.03 % ID/g and 0.21 % ID/g and the “% ID/g Femur (individual mouse)” value [2] was 1.52 % ID/g and 1.50 % ID/g. The “% ID/g Heart (individual mouse)” value [2] was 0.06 % ID/g and 0.07 % ID/g, the “% ID/g Kidney (individual mouse)” value [2] was 0.41 % ID/g and 0.51 % ID/g and the “% ID/g Large intestine” value [2] was 0.08 % ID/g and 0.33 % ID/g. The “% ID/g Liver (individual mouse)” value [2] was 9.42 % ID/g and 10.36 % ID/g, the “% ID/g Lung (individual mouse)” value [2] was 0.13 % ID/g and 0.20 % ID/g and the “% ID/g Mean Bladder” value [2] was 0.43 % ID/g. The “% ID/g Mean Blood” value [2] was 4.68 % ID/g, the “% ID/g Mean Brain” value [2] was 0.03 % ID/g and the “% ID/g Mean Fat” value [2] was 0.12 % ID/g. For the same compound, the “% ID/g Mean Femur” value [2] was 1.51 % ID/g, the “% ID/g Mean Heart” value [2] was 0.07 % ID/g and the “% ID/g Mean Kidney” value [2] was 0.46 % ID/g. The “% ID/g Mean Large intestine” value [2] was 0.20 % ID/g, the “% ID/g Mean Liver” value [2] was 9.69 % ID/g and the “% ID/g Mean Lung” value [2] was 0.17 % ID/g. The “% ID/g Mean Muscle” value [2] was 0.06 % ID/g, the “% ID/g Mean Pancreas” value [2] was 0.13 % ID/g and the “% ID/g Mean Salivary gland” value [2] was 0.05 % ID/g. The “% ID/g Mean Small intestine” value [2] was 3.54 % ID/g, the “% ID/g Mean Spleen” value [2] was 0.16 % ID/g and the “% ID/g Mean Stomach” value [2] was 0.16 % ID/g. For the same compound, the “% ID/g Mean Tumor” value [2] was 0.10 % ID/g, the “% ID/g Muscle (individual mouse)” value [2] was 0.04 % ID/g and 0.07 % ID/g and the “% ID/g Pancreas (individual mouse)” value [2] was 0.05 % ID/g and 0.22 % ID/g. For the same compound, the “% ID/g Salivery gland (individual mouse)” value [2] was 0.04 % ID/g and 0.06 % ID/g, the “% ID/g Small intestine” value [2] was 0.88 % ID/g and 6.19 % ID/g and the “% ID/g Spleen (individual mouse)” value [2] was 0.08 % ID/g and 0.25 % ID/g. The “% ID/g Stomach (individual mouse)” value [2] was 0.09 % ID/g and 0.23 % ID/g, the “% ID/g Tumor (individual mouse)” value [2] was 0.08 % ID/g and 0.11 % ID/g and the “% ID/g Bladder (individual mouse)” value [3] was 0.76 % ID/g and 0.92 % ID/g. The “% ID/g Blood (individual mouse)” value [3] was 2.56 % ID/g and 4.57 % ID/g, the “% ID/g Brain (individual mouse)” value [3] was 0.09 % ID/g and 0.12 % ID/g and the “% ID/g Fat (individual mouse)” value [3] was 0.22 % ID/g and 0.12 % ID/g. The “% ID/g Femur (individual mouse)” value [3] was 2.06 % ID/g and 2.07 % ID/g, the “% ID/g Heart (individual mouse)” value [3] was 1.38 % ID/g and 1.73 % ID/g and the “% ID/g Kidney (individual mouse)” value [3] was 0.79 % ID/g and 1.04 % ID/g. The “% ID/g Large intestine” value [3] was 0.61 % ID/g and 0.78 % ID/g, the “% ID/g Liver (individual mouse)” value [3] was 7.41 % ID/g and 8.27 % ID/g and the “% ID/g Lung (individual mouse)” value [3] was 1.70 % ID/g and 2.65 % ID/g. For the same compound, the “% ID/g Mean Bladder” value [3] was 0.84 % ID/g, the “% ID/g Mean Blood” value [3] was 3.57 % ID/g and the “% ID/g Mean Brain” value [3] was 0.10 % ID/g. The “% ID/g Mean Fat” value [3] was 0.22 % ID/g, the “% ID/g Mean Femur” value [3] was 2.07 % ID/g and the “% ID/g Mean Heart” value [3] was 1.56 % ID/g. For the same compound, the “% ID/g Mean Kidney” value [3] was 0.91 % ID/g, the “% ID/g Mean Large intestine” value [3] was 0.69 % ID/g and the “% ID/g Mean Liver” value [3] was 7.84 % ID/g. For the same compound, the “% ID/g Mean Lung” value [3] was 2.18 % ID/g, the “% ID/g Mean Muscle” value [3] was 0.98 % ID/g and the “% ID/g Mean Pancreas” value [3] was 2.07 % ID/g. For the same compound, the “% ID/g Mean Salivary gland” value [3] was 3.45 % ID/g, the “% ID/g Mean Small intestine” value [3] was 1.83 % ID/g and the “% ID/g Mean Spleen” value [3] was 0.93 % ID/g. For the same compound, the “% ID/g Mean Stomach” value [3] was 0.71 % ID/g, the “% ID/g Mean Tumor” value [3] was 2.23 % ID/g and the “% ID/g Muscle (individual mouse)” value [3] was 1.03 % ID/g and 0.69 % ID/g. For the same compound, the “% ID/g Pancreas (individual mouse)” value [3] was 1.96 % ID/g and 2.17 % ID/g, the “% ID/g Salivery gland (individual mouse)” value [3] was 2.17 % ID/g and 4.73 % ID/g and the “% ID/g Small intestine” value [3] was 1.65 % ID/g and 2.01 % ID/g. The “% ID/g Spleen (individual mouse)” value [3] was 0.78 % ID/g and 1.09 % ID/g, the “% ID/g Stomach (individual mouse)” value [3] was 0.60 % ID/g and 0.81 % ID/g and the “% ID/g Tumor (individual mouse)” value [3] was 2.99 % ID/g and 1.47 % ID/g.
